In patent US20040009273A1, “Method for the long-term preservation of meat and the meat process thereby” (priority 1996, published 2004):

Legend:
Format in all cases: cell-based
[1] = tested on: Gram negative bacteria on the surface of meat samples; assay: Bacterial growth under air, CO and N2 atmospheres, Gram negative selective plates (MacConkey); conditions: 4 g meat samples flushed with gas, 24 h at 15±3° C.; MacConkey plates overnight at 37° C.
Procedure: (§1) Meat samples weighing 4.00+0.18 grams, were treated by flushing with either air, CO, or N2. After twenty-four hours of storage at room temperature (15±3° C.) each of the treated meat samples was soaked in sterile 0.15M sodium chloride (1 ml per 2 grams of treated meat) for ninety minutes to extract any bacteria present on the surface of individual samples. Aliquots of serial dilutions of the extracts were plated onto non-selective agar plates (Bactoagar, Difco) and on Gram negative selective plates (MacConkey, Difco). All the plates were incubated over night at 37° C. to allow bacterial growth.

[2] = tested on: bacteria present on the surface of meat samples; assay: Bacterial growth under air, CO and N2 atmospheres, non-selective agar plates (Bactoagar); conditions: 4 g meat samples flushed with gas, 24 h at 15±3° C.; plates overnight at 37° C.
Procedure: as §1

[3] = tested on: Listeria monocytogenes; assay: Growth of inoculated Listeria monocytogenes on meat under defined atmospheres; conditions: beef and poultry; high CO (95-100%) or low (10%) CO versus untreated
Procedure: (§2) Studies were carried out comparing growth of inoculated pathogenic bacteria on fresh meat under three atmospheres. Air and two CO containing modified atmospheres: high CO (95-100%) and low (10%) CO. In low CO MA CO was replaced by an inert gas, nitrogen. Note that in most experiments the CO untreated control was the same for both modified atmospheres. Experiments with E coli were carried out on different meat controls.

[4] = tested on: Pseudomonas fluorescence; assay: Growth of inoculated Pseudomonas fluorescence on meat under defined atmospheres; conditions: beef and poultry; high CO (95-100%) or low (10%) CO versus untreated
Procedure: as §2

[5] = tested on: Clostridium prefringens; assay: Growth of inoculated Clostridium prefringens on meat under defined atmospheres; conditions: beef and poultry; high CO (95-100%) or low (10%) CO versus untreated
Procedure: as §2

[6] = tested on: E coli; assay: Growth of inoculated E coli on meat under defined atmospheres; conditions: beef; high CO (95-100%) or low (10%) CO versus untreated
Procedure: as §2

[7] = tested on: Salmonella Typhimirium; assay: Growth of inoculated Salmonella Typhimirium on meat under defined atmospheres; conditions: beef; high CO (95-100%) or low (10%) CO versus untreated
Procedure: as §2

[8] = tested on: Staphylococcus aures; assay: Growth of inoculated Staphylococcus aures on meat under defined atmospheres; conditions: beef; high CO (95-100%) versus untreated
Procedure: as §2

Row | Compound | No of calories, Gram negative (bacterial colony counts per gram of meat, mean±SD) [1] | No of calories, Grown on bactoagar (bacterial colony counts per gram of meat, mean±SD) [2] | growth of Listeria monocytogenes [3] | growth of Pseudomonas fluorescence [4] | growth of Clostridium prefringens [5] | growth of E coli [6] | growth of Salmonella Typhimirium [7] | growth of Staphylococcus aures [8]
1 | N#N [N2, nitrogen, reference compound] | (0.46 + 0.25) × 10^6 per gram of meat | (1.63 ± 0.3) × 10^6 per gram of meat |  |  |  |  |  | 
2 | [C-]#[O+] [CO, carbon monoxide] | 0.02 ± 0.01) × 10^6 per gram of meat | (0.29 ± 0.01) × 10^6 per gram of meat | inhibited | inhibited | inhibited | inhibited | inhibited | inhibited
